# Results taken from patent US7060707B2, “Isoquinoline derivatives” (Merck Patent GmbH, priority 2002, dated 2006).
smiles,measurement,value
Cc1ccnc(NCCCCC(=O)NNC(=O)N2CCc3ccccc3C2CC(=O)O)c1 (stereo not shown) [Example 4],melting point,103 to 109 °C
